One series addresses T1, HGF/MET system (Homo sapiens, UniProt P08581+P14210).
T1 construct: HEK293 cells were prepared by passage into 6-well multi-plates; endogenous in cells; host or cells: HEK293
The series can be described thus: Phospho-MET ELISA. Format: cell-based. The conditions noted are these: HEK293 cells, 1 ng/mL recombinant HGF, 15 minutes, pMET ELISA. In a few lines:
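Serum-starved (≥8 h) HEK293 cells treated with compound plus 1 ng/mL recombinant HGF for 15 min at 37° C in triplicate, then lysed in RIPA. Equal protein (50–100 μg, BCA-normalized) run in pMET sandwich ELISA, A450 read. Responses scaled 1–10 between 1 ng/mL and 10 ng/mL HGF means, using peak efficacy.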
A general note: In an ELISA, binding on a coated surface is turned into a signal by an enzyme label.

The subject of the next series is MDCK cells. The series can be described thus: Cell scattering behavior assay. Format: cell-based. The conditions noted are these: 5 ng/mL HGF, 24 hours, normalized particle count vs HGF alone. A digest of the protocol: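 MDCK cells starved 2 h in serum-free DMEM, then treated 24 h at 37 °C with compounds plus 5 ng/mL HGF. Cells were ethanol-fixed, WGA488-stained and imaged. Scattering was scored as particle count normalized to stained area, with activity taken as a statistical increase in normalized particle count over HGF alone.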

Series [1] in a line: Turbidimetric solubility assay. Format: physicochemical. The conditions noted are these: aqueous buffer, kinetic from dmso stock, PBS, 37° C., absorbance 620 nm.
Series [2] can be described thus: In vitro stability in simulated gastric and intestinal fluids. To be noted: 37° C.; for SGF + Enz (compound remaining after 4 hours): SGF with 3.2 mg/ml pepsin; for SGF + Enz (compound remaining after 4 hours) / SIF (compound remaining after 4 hours): 5 μM; for SGF (compound remaining after 4 hours): simulated gastric fluid pH 1.2, 5 μM; for SIF (compound remaining after 4 hours): simulated intestinal fluid pH 6.8 with 10 mg/ml pancreatin. It is filed as in vitro ADME. As for the experimental part: Bioavailability can be estimated by compound stability when exposed to conditions in the body. As an initial assessment of stability properties in a variety of conditions present in animals, exemplary compounds were tested for stability in a battery of simulated body compartments. Compounds were tested for stability in the following solutions: simulated gastric fluid (SGF: 34.2 mM NaCl, pH 1.2), simulated gastric fluid with the digestive enzyme pepsin (SGF+Enzyme: SGF with 3.2 mg/ml pepsin), simulated intestinal fluid with the mixture of enzymes in porcine pancreatin (SIF+Enzyme: 28.7 mM NaH2PO4, 105.7 mM NaCl, pH 6.8, 10 mg/ml pancreatin), rat plasma, and human plasma.
Test compounds were incubated at a final concentration of 5 μM in the above solutions at 37° C. with samples removed at the following time points: 0, 1, 2, and 4 hours. Reactions were stopped and prepared for quantification by addition of excess quench solution containing an internal standard (acetonitrile, 200 ng/mL bucetin). Test compound and internal standard in each sample was quantified by LC-MS/MS, and after internal normalization to bucetin, test compound concentration was expressed as a percentage of concentration at the 0-hour time point. Stability in the relevant test solution was then determined by the percent remaining at the 4-hour time point.

T1 sequence (P08581 308-1390 limits assumed): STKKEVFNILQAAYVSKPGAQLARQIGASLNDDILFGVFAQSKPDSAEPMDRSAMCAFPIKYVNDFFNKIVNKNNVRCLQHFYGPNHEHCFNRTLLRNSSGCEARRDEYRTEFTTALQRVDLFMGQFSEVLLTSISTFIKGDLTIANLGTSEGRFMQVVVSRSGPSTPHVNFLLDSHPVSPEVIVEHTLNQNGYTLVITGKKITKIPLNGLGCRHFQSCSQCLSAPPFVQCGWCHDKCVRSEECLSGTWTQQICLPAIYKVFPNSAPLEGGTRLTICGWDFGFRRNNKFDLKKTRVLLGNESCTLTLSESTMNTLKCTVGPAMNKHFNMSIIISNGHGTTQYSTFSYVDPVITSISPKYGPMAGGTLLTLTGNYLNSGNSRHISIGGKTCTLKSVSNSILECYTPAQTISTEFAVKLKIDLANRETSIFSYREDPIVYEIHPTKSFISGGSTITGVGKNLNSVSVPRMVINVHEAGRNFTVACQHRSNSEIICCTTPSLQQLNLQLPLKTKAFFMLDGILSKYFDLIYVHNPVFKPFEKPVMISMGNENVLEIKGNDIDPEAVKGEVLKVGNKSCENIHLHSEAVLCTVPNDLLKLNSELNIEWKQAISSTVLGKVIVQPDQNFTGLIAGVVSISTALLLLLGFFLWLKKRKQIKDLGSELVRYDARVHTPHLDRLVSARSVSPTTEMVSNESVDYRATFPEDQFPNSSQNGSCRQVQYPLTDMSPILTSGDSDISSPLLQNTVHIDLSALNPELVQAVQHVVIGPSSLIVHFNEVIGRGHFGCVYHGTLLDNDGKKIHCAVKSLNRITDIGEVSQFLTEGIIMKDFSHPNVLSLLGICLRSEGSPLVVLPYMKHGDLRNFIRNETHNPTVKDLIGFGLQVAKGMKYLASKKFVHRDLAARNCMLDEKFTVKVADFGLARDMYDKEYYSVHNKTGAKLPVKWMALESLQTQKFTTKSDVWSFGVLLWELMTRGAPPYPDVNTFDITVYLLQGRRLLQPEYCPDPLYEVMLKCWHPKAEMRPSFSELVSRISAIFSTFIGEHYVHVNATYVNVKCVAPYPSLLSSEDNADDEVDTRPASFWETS
T1 sequence (P14210 32-494 limits assumed): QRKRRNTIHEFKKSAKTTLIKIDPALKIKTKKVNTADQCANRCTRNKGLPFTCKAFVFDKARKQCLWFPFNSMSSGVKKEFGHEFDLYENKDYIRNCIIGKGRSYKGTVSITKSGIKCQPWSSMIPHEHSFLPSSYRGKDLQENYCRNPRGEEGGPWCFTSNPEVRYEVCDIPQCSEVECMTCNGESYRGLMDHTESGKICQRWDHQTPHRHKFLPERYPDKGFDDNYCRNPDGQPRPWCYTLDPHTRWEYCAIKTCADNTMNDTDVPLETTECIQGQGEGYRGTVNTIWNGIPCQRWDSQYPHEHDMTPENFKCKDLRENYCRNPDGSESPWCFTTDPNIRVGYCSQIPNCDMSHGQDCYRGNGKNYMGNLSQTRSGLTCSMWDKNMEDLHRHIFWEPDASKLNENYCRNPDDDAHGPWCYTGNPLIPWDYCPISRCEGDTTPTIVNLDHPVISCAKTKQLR

For the compound `CC1C(=O)N(CCC2CCC2)CC2N(C(=O)c3ccc(C(F)(F)F)cc3)CCC(=O)N12` (stereo not drawn) [Compound 20], the “Potency (augmentation of MET phosphorylation)” value on HGF/MET system is “+ (+ indicates maximum potency at or above 100 nM)”. In addition, the “Potency (cell scattering)” value in the series on MDCK cells is “+++ (+++ indicates maximum potency at or above 1 nM)”. In series [1], the solubility – broadly, how much of the substance goes into solution per volume – at 2 h is > 300 µM. In series [2], the “SGF + Enz (compound remaining after 4 hours)” value is recorded as “+++ (+++ indicates 80-99% compound remaining after 4 hours)”, the “SGF (compound remaining after 4 hours)” value was “+++ (+++ indicates 80-99% compound remaining after 4 hours)” and the “SIF (compound remaining after 4 hours)” value is given as “+++ (+++ indicates 80-99% compound remaining after 4 hours)”.
For the compound `C=CCCN1CC2N(C(=O)c3ccc(C(F)(F)F)cc3)CCC(=O)N2C(C)C1=O` (stereo not drawn) [Compound 22], at HGF/MET system, the “Potency (augmentation of MET phosphorylation)” value was “+++ (+++ indicates maximum potency at or above 1 nM)”. Besides, the “Potency (cell scattering)” value in the series on MDCK cells is “++ (++ indicates maximum potency at or above 10 nM)”. Moreover, the solubility at 2 h in series [1] was > 300 µM. In series [2], the “SGF + Enz (compound remaining after 4 hours)” value was “+++ (+++ indicates 80-99% compound remaining after 4 hours)”, the “SGF (compound remaining after 4 hours)” value is reported as “+++ (+++ indicates 80-99% compound remaining after 4 hours)” and the “SIF (compound remaining after 4 hours)” value is given as “+++ (+++ indicates 80-99% compound remaining after 4 hours)”.
